Assay results: ChEMBL document CHEMBL1146619, “The design and synthesis of guanosine compounds with in vitro activity against the colon cancer cell line SW480: non-taxane derived mimics of taxol?” (Bioorg Med Chem Lett, 2003)

Tested on: SW480
Experiment: In vitro anti-cancer activity against the colon cancer cell line SW480 was determined
Assay type: functional, cell-based
Conditions: Homo sapiens

Compound	IC50
COc1ccc(C(Nc2nc(O)c3ncn(C4OC(COC(=O)[C@@H]5OC(C)(C)N(C(C)=O)[C@H]5c5ccccc5)C5OC(C)(C)OC54)c3n2)(c2ccccc2)c2ccccc2)cc1 (stereo not given in full)	19.9 µM
COc1ccc(C(Nc2nc(O)c3ncn(C4OC(COC(=O)[C@@H]5OC(C)(C)N(C(=O)c6ccccc6)[C@H]5c5ccccc5)C5OC(C)(C)OC54)c3n2)(c2ccccc2)c2ccccc2)cc1 (stereo not given in full)	152 µM
CC(=O)O[C@H]1C(=O)[C@@]2(C)[C@H]([C@H](OC(=O)c3ccccc3)[C@]3(O)C[C@H](OC(=O)[C@H](O)[C@@H](NC(=O)c4ccccc4)c4ccccc4)C(C)=C1C3(C)C)[C@]1(OC(C)=O)CO[C@@H]1C[C@@H]2O [PACLITAXEL]	0.312 µM

Results, then the molecule that gave them:

IC50	Compound
192 µM	CC(=O)N1[C@@H](c2ccccc2)[C@H](C(=O)OCC2OC(n3cnc4c(O)nc(NC(=O)C(C)C)nc43)C3OC(C)(C)OC23)OC1(C)C (stereo not given in full)
222 µM	CC(C)C(=O)Nc1nc(O)c2ncn(C3OC(COC(=O)[C@@H]4OC(C)(C)N(C(=O)c5ccccc5)[C@H]4c4ccccc4)C4OC(C)(C)OC43)c2n1 (stereo not given in full)
